Reference: patent publication US20250186379A1, “METHODS AND AGENTS FOR DECREASING INSULIN RESISTANCE” (Whitehead Institute for Biomedical Research, priority 2021, published 2025)
Entries after “also recorded” stand apart in the source; their conditions may differ.

What was measured:
[1] = system: transcriptional condensates at SMAD7; test: IR-GFP and SMAD7 intronic RNA FISH colocalization in HepG2 cells; assay type: cell-based, human
[2] = system: insulin signaling proteins (IR, IRS1, AKT, ERK, GSK3); test: Immunoblot of phosphorylated over total insulin signaling proteins in HepG2 cells; assay type: cell-based, human
Protocol: Cells were washed with ice-cold PBS and lysed in Cell Lytic M (Sigma-Aldrich C2978) supplemented with protease and phosphatase inhibitors (Sigma Aldrich, 11873580001 and 4906837001) directly on the wells. Lysates were placed into a 1.5 ml tube and mixed at 4° C. for 20 min and then centrifuged at 13,000 rpm for 15 min. Protein concentration was determined using a BCA Protein Assay Kit (Life Technologies, 23250) according to the manufacturer's instructions. Equal amounts of protein (5-50 μg per sample) were separated on 10% or 12% Bis-Tris gels in 5% XT MOPS running buffer (Bio-Rad Laboratories, 1610788) at 100V until dye front reached the end of the gel. Protein was then transferred to a 0.45 μM PVDF membrane (Millipore, IPVH00010) in ice cold transfer buffer (25 mM Tris, 192 mM glycine, 20% methanol) at 300 mA for 1 hour or 250 mA for 2 hours at 4° C. After the transfer, membranes were blocked in 5% non-fat milk (LabScientific, M0842) dissolved in TBST (2% Tris HCl pH 8.0, 1.3% 5M NaCl, 0.05% Tween 20) or 5% BSA (VWR, 102643-516) in 1×TBST for 15 min to 1 hour at room temperature shaking. Membranes were then incubated overnight at 4° C. in 1:1000 primary antibody in 5% non-fat milk in TBST or 5% BSA in TBST. BSA was used for immunoblotting phosphorylated proteins, otherwise milk was used. Membranes were then washed three times for 5 min in TBST shaking at room temperature prior to incubation in 1:10,000 secondary antibody in 5% non-fat milk in TBST for 1 hour at room temperature. This was followed by three 10-minute washes in TBST. Membranes were developed with ECL substrate (Thermo Scientific, 34080) and imaged using a CCD camera. Immunoblot quantification was performed using the “analyze gel” tool on Fiji/ImageJ v2.1.0/153c.
The following primary antibodies were used for WB: anti-phosphorylated insulin receptor (Abcam, ab60946 and Cell Signaling 3026), anti-insulin receptor beta (Cell Signaling, 23413; Bethyl, A303-712A or Cell Signaling, 3025), anti-insulin receptor alpha (Cell Signaling, 74118), anti-phosphorylated AKT (Cell Signaling, 4056), anti-AKT (Cell Signaling, 9272), anti-phosphorylated ERK (Cell Signaling, 4377), anti-ERK (Cell Signaling, 9102), anti-beta Actin (Sigma Aldrich, A5441). The following secondary antibodies were used: donkey anti-rabbit IgG (Cytiva Life Sciences, NA934-1ML) and sheep anti-mouse IgG (Sigma Aldrich, NXA931V).
Cells were washed with ice-cold PBS (Life Technologies, AM9625) and lysed in Cell Lytic M (Sigma Aldrich C2978) supplemented with protease and phosphatase inhibitors (Sigma Aldrich, 11873580001 and 4906837001) directly on the wells. Lysates were placed into a 1.5 ml tube and mixed at 4° C. for 20 minutes, sonicated and then centrifuged at 12,000×g for 15 minutes. Super natant was collected and protein concentration was determined using a BCA Protein Assay Kit (Life Technologies, 23250) according to the manufacturer's instructions. Equal amounts of protein (5-50 μg per sample) were separated on 10% or 12% Bis-Tris gels in 5% XT MOPS running buffer (Bio-Rad Laboratories, 1610788) at 100V until dye front reached the end of the gel. Protein was then transferred to a 0.45 μM PVDF membrane (Millipore, IPVH00010) in ice cold transfer buffer (25 mM Tris, 192 mM glycine, 20% methanol) at 300 mA for 1 hour or 250 mA for 2 hours at 4° C. After the transfer, membranes were blocked in either 5% non-fat milk (LabScientific, M0842) dissolved in TBST (2% Tris HCl pH 8.0, 1.3% 5M NaCl, 0.05% Tween 20) or 5% BSA (VWR, 102643-516) in 1×TBST for 15 minutes to 1 hour at room temperature with shaking. Membranes were then incubated overnight at 4° C. in 1:1000 primary antibody (specific antibodies listed below) in 5% non-fat milk in TBST or 5% BSA in TBST. BSA was used for immunoblotting phosphorylated proteins, otherwise milk was used. […]

[3] = insulin-sensitive HepG2 cells, acute insulin stimulation

Row | Compound | levels of IR in transcriptional condensates at SMAD7 ([1]; insulin resistant cells, acute insulin stimulation) | colocalization of IR-containing condensates with SMAD7 nascent RNA ([1]; insulin sensitive cells, 0 nM versus 3 nM insulin) | phosphorylation of GSK3 after insulin stimulation ([2]; cells exposed to pathologic levels (3 nM) of insulin for two days) | phosphorylation of insulin signaling proteins after insulin stimulation ([2]; cells exposed to pathologic levels (3 nM) of insulin for two days vs physiologic (0.1 nM)) | GSK3 phosphorylation ([2]; insulin-sensitive HepG2 cells, 3 nM insulin 5 minutes) | AKT and ERK pathway activation [2, 3] | IR phosphorylation [2, 3] | IR levels in SMAD7 transcriptional condensates ([1]; metformin-treated insulin resistant cells, 3 nM insulin 5 min (FIG. 5D)) | IRS1 phosphorylation (pIRS1 over total IRS1, western blot) ([2]; insulin-resistant cells + metformin (FIG. 38))
1 | insulin: insulin (Sigma Aldrich, I9278-5ML) used for acute stimulation and chronic physiological or pathological exposure | did not increase the levels of IR in transcriptional condensates; also recorded: did not cause increased levels of IR in transcriptional condensates | increased colocalization | decreased phosphorylation of GSK3 | reduced phosphorylation of IR, IRS1, AKT and ERK | increased GSK3 phosphorylation | stimulate; also recorded: AKT and ERK pathway activation | stimulate; also recorded: induced IR phosphorylation | – | –
2 | CN(C)C(=N)N=C(N)N [metformin, reference compound] | – | – | – | – | – | – | – | increased | partial rescue of IRS1 phosphorylation; also recorded: partially rescues phosphorylation of IRS1
